The text below walks through data of patent US8232401B2 (Japan Tobacco Inc., priority 2002, dated 2012).

The target of this assay is T1, HIV integrase (Human immunodeficiency virus type 1 group M subtype B, UniProt P12497, F1332H).
T1 construct: HIV integrase full length gene; made in house; host or cells: Escherichia coli BL21(DE3)
Nature of the assay: Determination of enzyme (HIV integrase) inhibitory activity (strand transfer, microtiter plate, absorbance at 450 nm). The settings on record: recombinant HIV integrase (F185H) expressed in E. coli; donor DNA on streptavidin plate, digoxigenin target DNA; 37° C. Format: biochemical, HIV (Human Immunodeficiency Virus (type 1)).
Usually IC50 stands for the point on the concentration scale where inhibition reaches its midpoint. For `CC(=O)Nn1cc(C(=O)O)c(=O)c2cc(Cc3cccc(Cl)c3Cl)ccc21` [Example 2-3, 1-Acetylamino-6-(2,3-dichlorobenzyl)-4-oxo-1,4-dihydroquinoline-3-carboxylic acid], the IC50 came out at 110 nM. To `CS(=O)(=O)Nn1cc(C(=O)O)c(=O)c2cc(Cc3cccc(Cl)c3Cl)ccc21` [Example 2-4, 6-(2,3-Dichlorobenzyl)-1-methanesulfonylamino-4-oxo-1,4-dihydroquinoline-3-carboxylic acid] belongs 18 nM. To `CN(n1cc(C(=O)O)c(=O)c2cc(Cc3cccc(Cl)c3Cl)ccc21)S(C)(=O)=O` [Example 2-5, 6-(2,3-Dichlorobenzyl)-1-(N-methanesulfonyl-N-methylamino)-4-oxo-1,4-dihydroquinoline-3-carboxylic acid] belongs 300 nM; to `CN(C)n1cc(C(=O)O)c(=O)c2cc(Cc3cccc(Cl)c3Cl)ccc21` [Example 2-6, 6-(2,3-Dichlorobenzyl)-1-dimethylamino-4-oxo-1,4-dihydroquinoline-3-carboxylic acid], 92 nM. In the case of `CNn1cc(C(=O)O)c(=O)c2cc(Cc3cccc(Cl)c3Cl)ccc21` [Example 2-7, 6-(2,3-Dichlorobenzyl)-1-methylamino-4-oxo-1,4-dihydroquinoline-3-carboxylic acid] it was 79 nM; in that of `CCNn1cc(C(=O)O)c(=O)c2cc(Cc3cccc(Cl)c3Cl)ccc21` [Example 2-8, 6-(2,3-Dichlorobenzyl)-1-ethylamino-4-oxo-1,4-dihydroquinoline-3-carboxylic acid], 85 nM. As for `COc1c(Cc2cccc(Cl)c2Cl)ccc2c1c(=O)c(C(=O)O)cn2CCO` [Example 3-1, 6-(2,3-Dichlorobenzyl)-1-(2-hydroxyethyl)-5-methoxy-4-oxo-1,4-dihydroquinoline-3-carboxylic acid], the half-inhibitory concentration (IC50) worked out at 470 nM. In the case of `Cc1c(Cl)cccc1Cc1ccc2c(c1)c(=O)c(C(=O)O)cn2CCO` [Example 3-2, 6-(3-Chloro-2-methylbenzyl)-1-(2-hydroxyethyl)-4-oxo-1,4-dihydroquinoline-3-carboxylic acid] it was 200 nM; in that of `COc1c(Cl)cccc1Cc1ccc2c(c1)c(=O)c(C(=O)O)cn2CCO` [Example 3-3, 6-(3-Chloro-2-methoxybenzyl)-1-(2-hydroxyethyl)-4-oxo-1,4-dihydroquinoline-3-carboxylic acid], 190 nM; in that of `COc1cc2c(cc1Cc1cccc(Cl)c1F)c(=O)c(C(=O)O)cn2CCO` [Example 3-4, 6-(3-Chloro-2-fluorobenzyl)-1-(2-hydroxyethyl)-7-methoxy-4-oxo-1,4-dihydroquinoline-3-carboxylic acid], 11 nM. In the case of `O=C(O)c1cn(CCO)c2ccc(Cc3cccc(Cl)c3Cl)c(O)c2c1=O` [Example 3-5, 6-(2,3-Dichlorobenzyl)-5-hydroxy-1-(2-hydroxyethyl)-4-oxo-1,4-dihydroquinoline-3-carboxylic acid] it was 24 nM; in that of `O=C(O)c1cn(CCO)c2cc(O)c(Cc3cccc(Cl)c3Cl)cc2c1=O` [Example 3-6, 6-(2,3-Dichlorobenzyl)-7-hydroxy-1-(2-hydroxyethyl)-4-oxo-1,4-dihydroquinoline-3-carboxylic acid], 11 nM. Regarding `CN(C)c1ccccc1Cc1ccc2c(c1)c(=O)c(C(=O)O)cn2CCO` [Example 3-8, 6-(2-Dimethylaminobenzyl)-1-(2-hydroxyethyl)-4-oxo-1,4-dihydroquinoline-3-carboxylic acid], the concentration for half-maximal inhibition (IC50) came out at 340 nM. To `O=C(O)c1cn(-c2ccccc2)c2ccc(Cc3cccc(Cl)c3Cl)cc2c1=O` [Example 3-9, 6-(2,3-Dichlorobenzyl)-4-oxo-1-phenyl-1,4-dihydroquinoline-3-carboxylic acid] belongs 84 nM; to `O=C(O)c1cn(C(CO)CO)c2ccc(Cc3cccc(Cl)c3Cl)cc2c1=O` [Example 3-10, 6-(2,3-Dichlorobenzyl)-1-[2-hydroxy-1-(hydroxymethyl)ethyl]-4-oxo-1,4-dihydroquinoline-3-carboxylic acid], 18 nM. To `O=C(O)c1cn(C2CCC2)c2ccc(Cc3cccc(Cl)c3Cl)cc2c1=O` [Example 3-12, 1-Cyclobutyl-6-(2,3-dichlorobenzyl)-4-oxo-1,4-dihydroquinoline-3-carboxylic acid] belongs 16 nM; to `O=C(O)c1cn(C2CCCC2)c2ccc(Cc3cccc(Cl)c3Cl)cc2c1=O` [Example 3-13, 1-Cyclopentyl-6-(2,3-dichlorobenzyl)-4-oxo-1,4-dihydroquinoline-3-carboxylic acid], 29 nM. In the case of `COc1cc(Cc2cccc(Cl)c2Cl)cc2c(=O)c(C(=O)O)cn(CCO)c12` [Example 3-14, 6-(2,3-Dichlorobenzyl)-1-(2-hydroxyethyl)-8-methoxy-4-oxo-1,4-dihydroquinoline-3-carboxylic acid] it was 14 nM. Consider `O=C(O)c1cn(CCO)c2ccc(Cc3ccc(F)c(Cl)c3F)cc2c1=O` [Example 3-17, 6-(3-Chloro-2,4-difluorobenzyl)-1-(2-hydroxyethyl)-4-oxo-1,4-dihydroquinoline-3-carboxylic acid], for which the IC50 amounted to 13 nM. To `CCOc1cc2c(cc1Cc1cccc(Cl)c1Cl)c(=O)c(C(=O)O)cn2CCO` [Example 3-20, 6-(2,3-Dichlorobenzyl)-7-ethoxy-1-(2-hydroxyethyl)-4-oxo-1,4-dihydroquinoline-3-carboxylic acid] belongs 10 nM.

Turning to `O=C(O)c1cn(CCO)c2cc(Cl)c(Cc3cccc(Cl)c3Cl)cc2c1=O` [Example 3-21, 7-Chloro-6-(2,3-dichlorobenzyl)-1-(2-hydroxyethyl)-4-oxo-1,4-dihydroquinoline-3-carboxylic acid], the IC50 was determined as 30 nM.

Take `O=C(O)c1cn(CCO)c2cc(C(F)(F)F)c(Cc3cccc(Cl)c3Cl)cc2c1=O` [Example 3-22, 6-(2,3-Dichlorobenzyl)-1-(2-hydroxyethyl)-4-oxo-7-trifluoromethyl-1,4-dihydroquinoline-3-carboxylic acid]: the IC50 amounted to 790 nM.

As to `C[C@@H](CO)n1cc(C(=O)O)c(=O)c2cc(Cc3cccc(Cl)c3F)ccc21` [Example 3-23, (S)-6-(3-Chloro-2-fluorobenzyl)-1-(2-hydroxy-1-methylethyl)-4-oxo-1,4-dihydroquinoline-3-carboxylic acid], the IC50 turned out to be 7.2 nM.

With `C[C@H](CO)n1cc(C(=O)O)c(=O)c2cc(Cc3cccc(Cl)c3F)ccc21` [Example 3-24, (R)-6-(3-Chloro-2-fluorobenzyl)-1-(2-hydroxy-1-methylethyl)-4-oxo-1,4-dihydroquinoline-3-carboxylic acid], the concentration for half-maximal inhibition (IC50) turned out to be 39 nM.

Regarding `O=C(O)c1cn(CCO)c2c(C(F)(F)F)cc(Cc3cccc(Cl)c3F)cc2c1=O` [Example 3-25, 6-(3-Chloro-2-fluorobenzyl)-1-(2-hydroxyethyl)-4-oxo-8-trifluoromethyl-1,4-dihydroquinoline-3-carboxylic acid], the IC50 is 69 nM. Turning to `O=C(O)c1cn(C(CO)CO)c2ccc(Cc3cccc(Cl)c3F)cc2c1=O` [Example 3-26, 6-(3-Chloro-2-fluorobenzyl)-1-[2-hydroxy-1-(hydroxymethyl)ethyl]-4-oxo-1,4-dihydroquinoline-3-carboxylic acid], the half-maximal inhibitory concentration (IC50) came to 11 nM. In the case of `N#Cc1cc2c(cc1Cc1cccc(Cl)c1Cl)c(=O)c(C(=O)O)cn2CCO` [Example 3-27, 7-Cyano-6-(2,3-dichlorobenzyl)-1-(2-hydroxyethyl)-4-oxo-1,4-dihydroquinoline-3-carboxylic acid] it was 75 nM; in that of `CC(C)(C)n1cc(C(=O)O)c(=O)c2cc(Cc3cccc(Cl)c3F)ccc21` [Example 3-33, 1-tert-Butyl-6-(3-Chloro-2-fluorobenzyl)-4-oxo-1,4-dihydroquinoline-3-carboxylic acid], 8.7 nM; in that of `COc1cc(Cc2cccc(Cl)c2F)cc2c(=O)c(C(=O)O)cn(CCO)c12` [Example 3-34, 6-(3-Chloro-2-fluorobenzyl)-1-(2-hydroxyethyl)-8-methoxy-4-oxo-1,4-dihydroquinoline-3-carboxylic acid], 11 nM. To `Nc1cc(Cc2cccc(Cl)c2F)cc2c(=O)c(C(=O)O)cn(CCO)c12` [Example 3-35, 8-Amino-6-(3-chloro-2-fluorobenzyl)-1-(2-hydroxyethyl)-4-oxo-1,4-dihydroquinoline-3-carboxylic acid] belongs 11 nM.

Take `O=C(O)c1cc2c(cc1Cc1cccc(Cl)c1Cl)c(=O)c(C(=O)O)cn2CCO` [Example 3-36, 7-Carboxy-6-(2,3-dichlorobenzyl)-1-(2-hydroxyethyl)-4-oxo-1,4-dihydroquinoline-3-carboxylic acid]: the IC50 came out at 51 nM. To `COc1cc(Cc2c(F)ccc(Cl)c2F)cc2c(=O)c(C(=O)O)cn(CCO)c12` [Example 3-37, 6-(3-Chloro-2,6-difluorobenzyl)-1-(2-hydroxyethyl)-8-methoxy-4-oxo-1,4-dihydroquinoline-3-carboxylic acid] belongs 11 nM. As to `CN(C)c1cc(Cc2cccc(Cl)c2F)cc2c(=O)c(C(=O)O)cn(CCO)c12` [Example 3-38, 6-(3-Chloro-2-fluorobenzyl)-8-dimethylamino-(2-hydroxyethyl)-4-oxo-1,4-dihydroquinoline-3-carboxylic acid], the IC50 is 15 nM. In the case of `CC(=O)Nc1cc(Cc2cccc(Cl)c2F)cc2c(=O)c(C(=O)O)cn(CCO)c12` [Example 3-39, 8-Acetylamino-6-(3-chloro-2-fluorobenzyl)-1-(2-hydroxyethyl)-4-oxo-1,4-dihydroquinoline-3-carboxylic acid] it was 49 nM; in that of `CCN(CC)c1ccccc1Cc1ccc2c(c1)c(=O)c(C(=O)O)cn2CCO` [Example 3-42, 6-(2-Diethylaminobenzyl)-1-(2-hydroxyethyl)-4-oxo-1,4-dihydroquinoline-3-carboxylic acid], 720 nM; in that of `CC(C)(CO)n1cc(C(=O)O)c(=O)c2cc(Cc3cccc(Cl)c3F)ccc21` [Example 3-43, 6-(3-Chloro-2-fluorobenzyl)-1-(1,1-dimethyl-2-hydroxyethyl)-4-oxo-1,4-dihydroquinoline-3-carboxylic acid], 18 nM.
